Results on 26 compounds are retold here after US7700601B2, “Substituted indazoles of formula 1.0 that are kinase inhibitors” (Schering Corporation, priority 2006, dated 2010).

Where “and” joins values, the source holds several entries; their conditions need not be identical. Equal entries are not always repeated.

One test deals with T1, Akt1 (Homo sapiens, UniProt P31749).
T1 construct: (His)6 (N); made in house; host or cells: Sf9 insect cells (baculovirus, pBlueBacHis2B)
T1 sequence (P31749 whole entry): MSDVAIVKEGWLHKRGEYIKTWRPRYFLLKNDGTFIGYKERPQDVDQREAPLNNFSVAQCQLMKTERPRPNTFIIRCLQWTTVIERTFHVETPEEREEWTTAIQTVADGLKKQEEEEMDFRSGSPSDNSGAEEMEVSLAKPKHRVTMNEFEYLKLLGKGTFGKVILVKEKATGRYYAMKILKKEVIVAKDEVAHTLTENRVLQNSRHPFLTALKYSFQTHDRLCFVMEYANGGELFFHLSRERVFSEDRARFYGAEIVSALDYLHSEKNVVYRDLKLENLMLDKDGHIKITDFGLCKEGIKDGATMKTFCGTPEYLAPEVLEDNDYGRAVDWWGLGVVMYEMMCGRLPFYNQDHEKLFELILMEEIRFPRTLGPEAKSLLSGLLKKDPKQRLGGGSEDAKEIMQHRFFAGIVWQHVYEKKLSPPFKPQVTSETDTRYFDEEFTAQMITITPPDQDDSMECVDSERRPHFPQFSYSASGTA
The test can be described thus: Akt1 kinase assay (33P phosphorylation of biotinylated Gsk3-derived peptide, streptavidin Flash plates). Type of test: biochemical. The settings on record: Table 2; active recombinant Akt1. The text has this: The assay described below measures the phosphorylation of a biotinylated peptide by active recombinant Akt1 and other kinase isoforms. The biotinylated peptide contains a consensus sequence derived from Akt substrate Gsk3 (Glycogen synthase kinase 3). The ^33P-labeled peptide substrate was captured by streptavidin-coated Flash plates.
Active recombinant Akt1 was expressed in Sf9 insect cells and purified as described by Kumar et al., Biochim. Biophys. Acta. Jun. 15, 2001, 1526(3), 257-268. Biotinylated peptide of the sequence Bio-ahx-RPRAASF was purchased from Syn Pep (Dublin, Calif., USA).
Human Akt1 cDNA was amplified from a marathon-ready human lung cDNA library (Clonetech) using nested oligo primers as described below. The first round of amplification was carried out using the following primers; Akt1F1 ([…]) (SEQ ID NO: 1 and Akt1R1 (TCCATC […]) (SEQ ID NO: 2) and for the second round amplification, the primers of the following sequence were used; Akt1F2 (GGATCCTCGG […]) (SEQ ID NO: 3) and AKT1R2 (GGTACCATCGTC […]) (SEQ ID NO: 4). The PCR product was subcloned into pCRScript plasmid as a BamHI/KpnI fragment and the sequence of the cDNA was confirmed by DNA sequencing. This plasmid was used as a template for reamplification of Akt1 using appropriate primers for subcloning into pBlueBaHis2B into BamH1/EcoRI sites to generate an in frame fusion to (His)6 tag and an anti-Xpress antibody epitope tag at the N-terminus. This construct was sequenced to verify the junction sequences and used for generating a recombinant baculovirus. Growth of the recombinant virus, amplification and determination of viral titer were carried out according to the instructions from the manufacturer (InVitrogen, Calif.).
Viral stocks were used to infect large scale Sf9 cells at a multiplicity of infection (MOI) of 2.5. Cells were maintained at 27° C. for 60 h and okadaic acid was added to the cultures to a concentration of 50 nM. Cells were harvested 4 h hours later by centrifugation at 1200 rpm for 30 min followed by freezing at −80° C. until further use. All purification steps were carried out at 4° C. Whole cell pellets were suspended in buffer A (20 mM sodium phosphate buffer pH 7.8, 500 mM NaCl, 1 mM sodium vanadate, 5 mM sodium fluoride, 40 mM β-glycerophosphate, 10 mM imidazole and protease inhibitor cocktail) and lysed using a microfluidizer. The cell extract was centrifuged at 16,000×g for 10 min to remove the debris and directly loaded onto Ni-NTA Superflow resin using a FPLC pump operated at 1 ml/min. The column was washed once with buffer A, once with wash buffer B (20 mM sodium phosphate pH 6.0, 1 mM sodium vanadate, 5 mM sodium fluoride and protease cocktail) and once with wash buffer B containing 0.05% Tween-20 followed by washing with buffer A until OD260 returned to basal level. Proteins were eluted with buffer A containing 200 mM imidazole. Fractions were analyzed by electrophoresis on 10% denaturing polyacrylamide gels and fractions containing 85% pure protein band at 60 KDa were pooled and dialyzed against buffer C (20 mM Tris-HCl pH 7.5, 0.5 mM EDTA, 2 mM DTT, 145 mM NaCl, 0.1 mM sodium vanadate, 5 mM sodium fluoride, 10 mM β-glycerophosphate and 20% glycerol). Purified protein was stored as aliquots at −80° C. Protein concentrations were determined using BCA protein assay reagent A (Catalog #23228). To examine the identity of the proteins, 2 μg of purified protein was electrophoresed on SDS-polyacrylamide gels and stained with coomassie blue dye or transferred to nitrocellulose membrane and probed with anti-Akt and anti-phospho-specific Akt antibodies using enhanced chemiluminescence (ECL) reagent according to the protocol described by the manufacturer (Amersham).
The kinase assay was performed in 96 well plates at room temperature. Assay solutions and plates were preincubated at room temperature for 5 min. […]
With `Cc1n[nH]c2ccc(-c3cnc(NCc4ccccc4)c(NCCN)n3)cc12`, the IC50 (in general, the midpoint of a concentration-inhibition curve) was 0.079 µM. For `Cc1n[nH]c2ccc(-c3cnc(NCc4ccccc4)c(N4CCNCC4)n3)cc12` [drawing 101], the IC50 is 0.046 µM. Turning to `Cc1n[nH]c2ccc(-c3cnc(NCc4cccc(F)c4)c(N4CCNCC4)n3)cc12` [drawing 103], the IC50 was determined as 0.044 µM. Same read-out and setting: the same measure for `Cc1n[nH]c2ccc(-c3cncc(N4CCN[C@@H](Cc5ccccc5)C4)n3)cc12` [Example 2, 2-[(S)-3-benzylpiperazinyl]-6-[3-methyl-1H-indazol-5-yl]pyrazine]: 0.001 µM; for `Cc1n[nH]c2ccc(-c3cnc(N)c(N4CCN[C@@H](Cc5ccccc5)C4)n3)cc12` [drawing 106]: 0.055 µM; for `Cc1ccccc1CNc1ncc(-c2ccc3[nH]nc(C)c3c2)nc1N1CCNCC1` [drawing 108]: 0.14 µM.

Turning to `Cc1n[nH]c2ccc(-c3cnc(NCc4ccccc4)c(N4CCN[C@@H](Cc5ccccc5)C4)n3)cc12` [drawing 104], the IC50 was found to be 0.076 µM.

`Cc1n[nH]c2ccc(-c3cnc(N)c(NCCN)n3)cc12`: the IC50 was 0.074 µM.

`COc1cccc(CNc2ncc(-c3ccc4[nH]nc(C)c4c3)nc2N2CCNCC2)c1` [drawing 109]: the IC50 was 0.148 µM.

For the compound `Cc1n[nH]c2ccc(-c3cnc(NCc4ccccc4Cl)c(N4CCNCC4)n3)cc12` [drawing 105], the IC50 turned out to be 0.129 µM.

Staying with this test, now noted: active recombinant Akt1, 2 μM cold ATP, 2 hr, room temperature.
With `Cc1n[nH]c2ccc(-c3cnc(NCc4cccc(Cl)c4)c(N4CCNCC4)n3)cc12` [Example 30], the IC50 was 0.00098 to 0.24 µM. `Cc1n[nH]c2ccc(-c3cnc(NCc4c(F)cccc4Cl)c(N4CCNCC4)n3)cc12` [Example 50]: the IC50 was 0.00098 to 0.24 µM. Still for that read-out and setting: the same measure for `Cc1n[nH]c2ccc(-c3cnc(N(C)Cc4ccccc4)c(N4CCNCC4)n3)cc12` [Example 27]: 0.00098 to 0.24 µM. The same measure, in the same setting: the value for `COc1ccccc1CNc1ncc(-c2ccc3[nH]nc(C)c3c2)nc1N1CCNCC1` [Example 35] was 0.00098 to 0.24 µM; that for `Cc1ccccc1CNc1ncc(-c2ccc3[nH]nc(C)c3c2)nc1N1CCNCC1` [Example 38] was 0.00098 to 0.24 µM; that for `Cc1n[nH]c2ccc(-c3cnc(NCc4ccccc4)c(N4CCN[C@@H](Cc5ccccc5)C4)n3)cc12` [Example 5] was 0.00098 to 0.24 µM. Regarding `Cc1n[nH]c2ccc(-c3cnc(NCc4ccccc4F)c(N4CCNCC4)n3)cc12` [Example 41], the IC50 lay within 0.00098 to 0.24 µM. On the same count and under the same terms, the same measure for `Cc1n[nH]c2ccc(-c3cnc(NCc4ccccc4)c(N4CCNCC4)n3)cc12` [Example 18]: 0.00098 to 0.24 µM and 0.00098 to 0.046 µM. On the same count and under the same terms, the same measure for `COc1cccc(CNc2ncc(-c3ccc4[nH]nc(C)c4c3)nc2N2CCNCC2)c1` [Example 34]: 0.00098 to 0.24 µM; for `Cc1n[nH]c2ccc(-c3cnc(N)c(N4CCNCC4)n3)cc12` [Example 12]: 0.00098 to 0.24 µM. On the same count and under the same terms, the value for `Cc1n[nH]c2ccc(-c3cncc(N4CCN[C@@H](Cc5ccccc5)C4)n3)cc12` [Example 2, 2-[(S)-3-benzylpiperazinyl]-6-[3-methyl-1H-indazol-5-yl]pyrazine] was 0.00098 to 0.24 µM and 0.00098 to 0.046 µM and 0.00098 µM.

Turning to `Cc1n[nH]c2ccc(-c3cnc(N)c(N4CCN[C@H](c5ccccc5)C4)n3)cc12` [Example 8], the IC50 lay within 0.00098 to 0.24 µM.

Take `Cc1n[nH]c2ccc(-c3cnc(NCc4ccc(Cl)cc4)c(N4CCNCC4)n3)cc12` [Example 29]: the IC50 lay within 0.00098 to 0.24 µM. Consider `Cc1n[nH]c2ccc(-c3cnc(NCc4ccccc4Cl)c(N4CCNCC4)n3)cc12` [Example 31], for which the IC50 lay within 0.00098 to 0.24 µM.

Take `Cc1n[nH]c2ccc(-c3cnc(N)c(N4CCN[C@@H](Cc5ccccc5)C4)n3)cc12` [Example 1, 2-amino-3-[(S)-3-benzylpiperazinyl]-5-(3-methyl-1H-indazol-5-yl)pyrazine]: the IC50 lay in the range of 0.00098 to 0.24 µM.

Turning to `Cc1n[nH]c2ccc(-c3cnc(NCc4ccc(F)cc4)c(N4CCNCC4)n3)cc12` [Example 43], the half-inhibitory concentration (IC50) was 0.00098 to 0.24 µM. Same read-out and setting: the value for `Cc1n[nH]c2ccc(-c3cnc(NCc4cccc(F)c4)c(N4CCNCC4)n3)cc12` [Example 42] was 0.00098 to 0.24 µM and 0.00098 to 0.046 µM.
